Where two headings read alike, the source gives them in different places.
What was measured:
[1] = cited from earlier work
[2] = Chemiluminescence and fluorescence changes of probes toward O2•- (KO2): response, selectivity, LOD; conditions: for LOD against O2•-: KO2 0-1000 nM, LOD=3σ/k; for LOD against O2•- / fluorescent signal enhancement upon cleavage by O2•-: PBS (10 mM, pH 7.4, 10% DMSO), 37° C.; for chemiluminescence intensity increase after addition of O2•- / fluorescent signal enhancement upon cleavage by O2•-: probe 20 μM; for chemiluminescence intensity increase after addition of O2•-: O2•- 40 μM for 10 s, PBS pH 7.4, 37° C., at 480 / 520 / 580 / 540 nm; for fluorescent signal enhancement upon cleavage by O2•-: at ~486 / 532 / 582 / 542 nm
Protocol: The chemiluminescence and fluorescence changes of BOPDSu, BTPDSu, MBPDSu and MPDSu (20 μM) were recorded at different concentrations of RONS (40 μM) and other metal ions (100 μM). BOPDSu, BTPDSu, MBPDSu and MPDSu (20 μM) in phosphate buffered saline (PBS) buffer were treated in the presence of different RONS (40 μM), and metal ions (Mg^2+, Ca^2+ or Fe^2+, 100 μM) at 37° C.
The chemiluminescence signals were recorded at different concentrations of KO2 (0, 50, 100, 250, 500 and 1000 nM). Then, the limit of detection (LOD) of BOPDSu, BTPDSu, MBPDSu and MPDSu were calculated by chemiluminescence intensities based on the equation: LOD=3σ/k, where σ is the standard deviation of emission intensity of blank, and k is the slope of plot of emission intensities.

[3] = Chemiluminescence kinetic studies (half-lives, CL emission) of caged probes in the presence of O2•-; assay type: physicochemical; conditions: caged probe after activation, in PBS (10% DMSO) at 37° C.
Protocol: FIG. […]
[…] The chemiluminescent intensities were plotted as a function of time.
[…] The chemiluminescence signal was recorded by the microplate reader to calculate half-lives of BTPDSu at different pHs.

[4] = Chemiluminescence quantum yield in the presence of O2•-; assay type: physicochemical; conditions: probe 20 μM, O2•- 100 μM, PBS (10 mM, pH 7.4, 10% DMSO), 37° C.
Protocol: (§1) The chemiluminescence QYs of BOPDSu, BTPDSu, MBPDSu, and MPDSu (20 μM) were measured in the presence of O2^•- (100 μM) in PBS (10 mM, pH 7.4, 10% DMSO) at 37° C. The fluorescence QYs were determined by using Rhodamine B as a standard dye (QY 36%) in PBS (10 mM, pH 7.4) (X. Zhen et al., ACS Nano 2016, 10, 6400-6409). The fluorescence QY of AMPD was obtained from the literature (O. Green et al., ACS Cent. Sci. 2017, 3, 349-358).

[5] = Fluorescence quantum yield of activated probes; assay type: physicochemical; conditions: Rhodamine B as standard (QY 36%), PBS (10 mM, pH 7.4)
Protocol: as §1

dorsal skins of mice = assay: Histopathologic, immunohistochemical and flow cytometry analyses of dorsal skins (IMQ psoriasis model); assay type: in vivo, BALB/c mice
Protocol: The control group was treated with Vaseline (50 mg/d) and the IMQ-treatment group was applied with IMQ cream (60 mg/d, 5%) once a day. […] Probe BTPDNe (10 uM, 1 mM in DMSO) was thoroughly mixed with Aquaphor (˜10 mg) and applied for psoriasis imaging, followed by poly(methyl methacrylate) microneedle treatment for 1 min. Then, chemiluminescent signals at different time-points (0, 3, 5, 10, 15, 30, 45 and 60 min) after probe-treatment were recorded using IVIS system bioluminescence with acquiring time of 180 s. Until the third day, all the mice were sacrificed to collect tissue and blood for further experiments (hematoxylin and eosin (H&E) staining and flow cytometry analysis) as described in Example 11.
The dorsal skin samples were separated and soaked in 4% paraformaldehyde (4% PFA) for 12 h and immersed in 30% sucrose solution. The skin samples were stained by hematoxylin and eosin (H&E). Then, the samples were flash-frozen by liquid nitrogen, immobilized with optimal cutting temperature compound, and section slices ([…]). The thickness of epidermis was observed under a microscope (Nikon ECLIPSE 80i microscope). APC-Ly6G, as a neutrophil marker, was used to stain neutrophil cells and DAPI was applied for cell nucleus staining. The immunofluorescence was observed by Nikon ECLIPSE 80i microscope.
After performing in vivo chemiluminescence imaging of neutrophils using BTPDNe in psoriasis-bearing mice with 2 day IMQ treatment, fresh section slices from dorsal skins were stained with Ly6G. Immunofluorescence imaging of slices with activated BTPDNe in green color was observed upon excitation at 405 nm and emission at 500-550 nm, while red color from Ly6G was observed upon excitation from 633-647 nm and emission at 660 nm. The immunofluorescence imaging was acquired by Nikon ECLIPSE 80i microscope.

[6] = uncaged, in PBS (10% DMSO), pH 7.4, 37° C.
[7] = uncaged, in PBS (5% DMSO), pH 7.4, 37° C.
[8] = uncaged, in PBS (10% DMSO), pH 10, 37° C.
[9] = uncaged, in PBS, pH 7.4, 10% FBS

COC1(c2cc(O)cc3oc(=O)ccc23)OOC12C1CC3CC(C1)CC2C3 (stereo not drawn)
CL Emission [1, 6]: 465 nm

COC1(c2cccc(O)c2)OOC12C1CC3CC(C1)CC2C3 (stereo not drawn)
CL Emission ([1]; uncaged, in o-Xylene at 25° C.): ~460 nm

COC1(c2cccc(O)c2Cl)OOC12C1CC3CC(C1)CC2C3 (stereo not drawn)
CL Emission [1, 7]: 470 nm
CL Emission ([1]; uncaged, in PBS (5% DMSO), pH 10, 37° C.): 470 nm

COC1(c2ccc(/C=C/C(=O)O)c(O)c2Cl)OOC12C1CC3CC(C1)CC2C3 (stereo not drawn)
CL Emission [1, 6]: 510 nm
CL Emission [1, 8]: 510 nm

COC1(c2ccc(/C=C/c3ccc(C(=O)O)cc3)c(O)c2Cl)OOC12C1CC3CC(C1)CC2C3 (stereo not drawn)
CL Emission [1, 6]: 535 nm
CL Emission [1, 8]: 535 nm

COC1(c2ccc(/C=C/c3ccc(CC(=O)O)cc3)c(O)c2Cl)OOC12C1CC3CC(C1)CC2C3 (stereo not drawn)
CL Emission [1, 6]: 500 nm
CL Emission [1, 8]: 500 nm

COC1(c2ccc(/C=C/c3ccc(OCC(=O)O)cc3)c(O)c2Cl)OOC12C1CC3CC(C1)CC2C3 (stereo not drawn)
CL Emission [1, 6]: 490 nm
CL Emission [1, 8]: 490 nm

COC1(c2cc(O)ccc2/C=C/C2=CC(=C(C#N)C#N)c3ccccc3O2)OOC12C1CC3CC(C1)CC2C3 (stereo not drawn)
CL Emission [1, 9]: 660 nm

COC1(c2cc(O)c(/C=C/C(=O)O)cc2/C=C/C2=CC(=C(C#N)C#N)c3ccccc3O2)OOC12C1CC3CC(C1)CC2C3 (stereo not drawn)
CL Emission [1, 9]: 690 nm

CC(=O)Oc1cc(C23OCC(C)(C)C2(C(C)(C)C)OO3)cc2ccc(=O)oc12 (stereo not drawn)
CL Emission ([1]; caged, after activation, in DMSO with 170 μM TBAF at 25° C.): 470 nm

COC1(c2ccc(/C=C/C#N)c(OC(=O)c3ccccc3P(c3ccccc3)c3ccccc3)c2Cl)OOC12C1CC3CC(C1)CC2C3 (stereo not drawn)
CL Emission ([1]; caged, after activation, in 20 mM HEPES or PBS (pH 7.4), 1% DMSO): 525 nm

COC1(c2ccc(/C=C/C#N)c(OCc3ccc4c(c3)C(=O)C(=O)N4)c2Cl)OOC12C1CC3CC(C1)CC2C3 (stereo not drawn)
CL Emission ([1]; caged, after activation, in 20 mM HEPES (pH 7.4), 1% DMSO): 525 nm

1-methylpyridinium-benzothiazole-phenoxyl-dioxetane [MBPDSu]
LOD against O2•- [2]: 6.3 nM
chemiluminescence intensity increase after addition of O2•- [2]: 2590 times
fluorescent signal enhancement upon cleavage by O2•- [2]: 40.5 folds
CL Emission [3]: 580 nm
ΦCl, chemiluminescence QY [4]: 0.045 einsteins/mol

COC(=O)c1ccc(-c2nc3ccccc3o2)c(O)c1 [ABOPD]
ΦFl, fluorescence QY of activated probe [5]: 33.0%

COC(=O)c1ccc(-c2nc3ccccc3s2)c(O)c1 [ABTPD]
ΦFl, fluorescence QY of activated probe [5]: 24.1%

COC(=O)c1cc(O)c(-c2nc3ccccc3s2)cc1/C=C/c1cc[n+](C)cc1.[I-] [AMBPD]
ΦFl, fluorescence QY of activated probe [5]: 7.5%

CC(C)Cn1cnc2c(N)nc3ccccc3c21 [IMQ, Imiquimod]
population of NE-expressing neutrophils in skins relative to CsA-treated group (dorsal skins of mice; day 2, flow cytometry): 2.62 times
population of NE-expressing neutrophils in skins relative to control group (dorsal skins of mice; day 2, flow cytometry): 2.03 times
skin thickness and neutrophil (CD11c+, Ly6G+) population / infiltration (dorsal skins of mice; dorsal skins, histology and immunohistochemistry, vs control group): increased thickness and neutrophil (CD11c+, Ly6G+) infiltration

COC(=O)/C=C/c1ccc(C2(OC)OOC23C2CC4CC(C2)CC3C4)c(Cl)c1O (stereo not drawn) [drawing 49]
CL Emission [1, 6]: 540 nm
CL Emission [1, 8]: 550 nm

COC(=O)/C=C/c1ccc(C2(OC)OOC23C2CC4CC(C2)CC3C4)c(Cl)c1O (stereo not drawn) [drawing 50]
CL Emission [1, 7]: 540 nm

COC1(c2ccc(/C=C/C#N)c(O)c2Cl)OOC12C1CC3CC(C1)CC2C3 (stereo not drawn) [drawing 51]
CL Emission [1, 7]: 525 nm

COC1(c2ccc(/C=C/C#N)c(O)c2Cl)OOC12C1CC3CC(C1)CC2C3 (stereo not drawn) [drawing 52]
CL Emission [1, 6]: 525 nm
CL Emission [1, 8]: 525 nm

benzoxazole-phenoxyl-dioxetane [BOPDSu]
LOD against O2•- [2]: ~5.7 nM
chemiluminescence intensity increase after addition of O2•- [2]: 3291 times
fluorescent signal enhancement upon cleavage by O2•- [2]: 45.3 folds
ΦCl, chemiluminescence QY [4]: 0.189 einsteins/mol

methyl acrylate-phenoxyl-dioxetane [MPDSu, reference compound]
LOD against O2•- [2]: 13.6 nM
chemiluminescence intensity increase after addition of O2•- [2]: 2624 times
fluorescent signal enhancement upon cleavage by O2•- [2]: 11.2 folds
ΦCl, chemiluminescence QY [4]: 0.023 einsteins/mol

Source: US20240277873A1, “ULTRABRIGHT […] PROBES FOR DETECTION AND IMAGING” (Nanyang Technological University, priority 2021, published 2024)
